“And” between values parts separate entries of the source, which are not always exact repeats. Identical values can stand only once.
Key:
[1] = after oral administration; cited from earlier work
[2] = Individual dose titration of sublingual nitroglycerin, side effects (Examples 1 and 2); format: in vivo, human
[3] = Phase IIa forced-titration trial of nitroglycerin sublingual powder in PAOD patients, interim analysis of headache (Example 3); format: in vivo, human; conditions: for Headache days (%): of study days corrected by drop-out days
Experimental: The patients are advised to take the dosages in the morning, noon and evening so that the short acting NO donor is administered in an intermittent manner.
Participants report adverse effects during the study with headache being one of the adverse effects.
The study has not yet been finalized but an interim analysis regarding headache as an adverse effect of the study drug has been performed (FIG. 2, Table 1-3).
At the time point of the interim analysis the study was still blinded, so with regard to patients' reported adverse event headache it could not be distinguished between the frequency of headache in the verum and the placebo group.
As the titration of the study medication takes place in the first 3 weeks, the analysis is focused on reported headache in the first three weeks plus in week 4 to also monitor possible late or ongoing side effects.
The analysis includes 35 participants so far which are at different time points of the study protocol. In FIG. 1 the individual headache days of the 35 participants are shown. Some participants have already reached the end of the 12-week treatment period and are in the follow-up period, some participants are still on treatment, but all participants […] have surpassed the titration phase and are on the final dosage of 0.7 mg GTN.

[4] = total of 2453 study days so far
[5] = weeks 1-4, of 927 corrected study days

## O=[N+]([O-])O[C@@H]1CO[C@H]2[C@@H]1OC[C@@H]2O [isosorbide mononitrate]
[1]
  Halftime: around 5 hours

## O=[N+]([O-])OCC(CO[N+](=O)[O-])O[N+](=O)[O-] [nitroglycerin]
[2]; Example 1, final dosage 0.7 mg after weekly increase 0.15-0.3-0.5-0.7 mg
  Side effects: without side effects
[2]; Example 1, person, approximately 0.15 mg GTN TID sublingual powder
  Side effects: no headache or other known GTN side effects
[2]; Example 1, sublingual nitroglycerin in a therapeutic dose, no titration
  Side effects: severe headache
[2]; Example 2, 0.15 mg TID
  Side effects: no nausea or headache or other known GTN side effects
[2]; Example 2, final dosage 0.4 mg TID after weekly increase 0.15-0.3-0.4 mg
  Side effects: without side effects
[2]; Example 2, person, initial dose 0.4 mg sublingual, no titration
  Side effects: nausea and mild headache
[3]; 3 participants with possible chronic headache or migraine excluded
  Remaining share of participant headache days when the 3 participants are excluded: 15%
[3]; during the titration in the first 4 weeks
  Possibly headache related drop-outs: one
[3]; first 4 weeks
  Headache days of the 3 participants with possible chronic headache or migraine background: 82 days
  Participants in whom the headache lasted more than a week: 5 participants
  Share of headache days due to the 3 participants with possible chronic headache or migraine background: 65%
[3]; first 4 weeks, not during the first three days, of 35
  Participants with headache on a single day: 6 participants
[3]; first 4 weeks, of 35
  Participants with headache that lasted more than one day: 6 participants
[3]; further course of the therapy
  Additional participants dropped out due to headache: 2 participants
[3]; interim analysis, blinded
  Overall headache frequency in the present study: below 30%
[3]; overall study
  Headache days recorded for the 3 participants with continuous headache: 209 days and 212 days
  Share of total headache days due to the 3 participants with continuous headache: 85%
[3]; starting dose 0.3 mg GTN
  Participants that have headache during the first days of treatment: 5 participants
  Percentage of participants that have headache during the first days of treatment: 14.3%
[3]; [4]
  Participant headache days recorded so far (overall study): 245 days and 251 days
  Percentage of headache days of total study days so far: 10%
[3]; week 1
  Participants with possible chronic headache or migraine history: 3
[3]; week 1, 0.3 mg GTN
  Headache corrected by participants with possible chronic headache or migraine history (%): 20%
  Participant headache days corrected by participants with possible chronic headache or migraine history (%): 7.8%
  Headache days (%): 15.5%
[3]; week 1, 0.3 mg GTN, blinded
  Headache (%) of participants: 28.6%
[3]; week 2
  Participants with possible chronic headache or migraine history: 3
[3]; week 2, 0.5 mg GTN
  Headache corrected by participants with possible chronic headache or migraine history (%): 11.4%
  Participant headache days corrected by participants with possible chronic headache or migraine history (%): 4.2%
  Headache days (%): 13.0%
[3]; week 2, 0.5 mg GTN, blinded
  Headache (%) of participants: 20%
[3]; week 2, 0.5 mg GTN, blinded, listed as GTN
  Headache (%) of participants: 20.0%
[3]; week 2, 3 or 4 versus week 1
  Change of headache frequency as a result of the increased dosage: did not monitor an increased headache frequency
[3]; week 3
  Participants with possible chronic headache or migraine history: 3
[3]; week 3, 0.7 mg GTN
  Headache corrected by participants with possible chronic headache or migraine history (%): 5.7%
  Participant headache days corrected by participants with possible chronic headache or migraine history (%): 3.1%
  Headache days (%): 12.3%
[3]; week 3, 0.7 mg GTN, blinded
  Headache (%) of participants: 14.3%
[3]; week 4
  Participants with possible chronic headache or migraine history: 3
[3]; week 4, 0.7 mg GTN
  Headache corrected by participants with possible chronic headache or migraine history (%): 0%
  Participant headache days corrected by participants with possible chronic headache or migraine history (%): 0%
  Headache days (%): 9.7%
[3]; week 4, 0.7 mg GTN, blinded
  Headache (%) of participants: 8.6%
[3]; [5]
  Headache days during the first 4 weeks: 118 days and 127 days
  Overall percentage of headache days during the first 4 weeks: 12.7%

— patent publication US20200276145A1, “REDUCING SIDE EFFECTS OF SHORT ACTING NO DONORS” (G. POHL-BOSKAMP GMBH & CO. KG, priority 2016, published 2020)
